How the values were obtained:
Neuro2a cells = assay: MTT cytotoxicity assay, Neuro2a; assay type: cell-based, murine; details: Mus musculus, N2a, 24 h, read-out: IC50, Neuroblastoma, Neuro2a
Procedure: (§1) To evaluate the antitumor activity of the synthesized soloxolone amides in brain tumor cells, the cytotoxicity of compounds 4–12, predicted as BBB-permeable (Figure 3), was further analyzed in human glioblastoma U87 and U118 cells, as well as human neuroblastoma KELLY and murine neuroblastoma Neuro2a cells.
(§2) The cells in the exponential growth phase were seeded in quadruplicate in 96-well plates at a density of 1 × 10^4 cells/well for HeLa, U87, U118, KELLY and Neuro2a cells; 1.5 × 10^4 cells/well for HuTu-80 cells; 2 × 10^4 cells/well for B16 cells; and 7 × 10^3 cells/well for hFF3 fibroblasts. Cells were incubated under standard conditions overnight followed by their treatment with the investigated compounds (1–20 µM) for 24 h. Then, 10 µL of MTT solution was added to the cells to a final concentration of 0.5 mg/mL and plates were placed under standard conditions for 3 h followed by an aspiration of MTT-containing medium and a dissolution of formazan crystals with 100 µL of DMSO. The absorbance of each well was read at test and reference wavelengths of 570 and 620 nm, respectively, on a Multiscan RC plate reader (Thermo LabSystems, Helsinki, Finland).

U118 cells = assay: Autophagy, MDC staining, U118; assay type: cell-based, human; details: 24 h
Procedure: Given that pentacyclic triterpenoids can induce tumor cell death not only by the apoptotic pathway but also by triggering autophagy, we next studied whether 12 stimulated autophagy in glioblastoma cells. For this, U87 and U118 cells were incubated with tryptamide 12 at toxic concentrations (2 or 4 µM) for 24 h followed by cell staining with monodansylcadaverine (MDC), a fluorescent dye specifically labeling autophagosomes. […] Considering that autophagy can be associated not only with cell death but also with cytoprotection, its role in the cytotoxicity of 12 in glioblastoma cells was further studied.
To evaluate the ability of 12 to induce autophagy, U87 and U118 cells were seeded at 2.8 × 10^5 cells/well in 6-well plates and incubated under standard conditions overnight followed by their treatment with 12 in amounts of 2 and 4 μM for 24 h. Then, the cells were collected and washed with PBS as described above and resuspended in 500 µL of PBS containing monodancylcadaverine (MDC) at 50 μM. After incubation for 15 min under standard conditions, the cells were washed with PBS and analyzed by flow cytometry. For each sample, 10,000 events were acquired.

KELLY cells = assay: MTT cytotoxicity assay, KELLY; assay type: cell-based; details: Homo sapiens, 24 h, read-out: IC50, Neuroblastoma, KELLY
Procedure: as §1, §2

U87 cells = assay: Mitochondrial mass, MitoTracker Green; assay type: cell-based, human; details: 24 h
Procedure: Next, to evaluate whether the observed compound 12-driven disturbance of mitochondrial homeostasis in glioblastoma cells involved an alteration in mitochondrial abundance, U87 cells were treated with 12 at 2 and 4 µM for 24 h and stained with MitoTracker Green, a fluorescent probe accumulated in mitochondria ΔψM-independently. […] The obtained results agree well with published data: Yang et al. and Gibellini et al. found a similar increase in mitochondrial mass in RAW264.7 macrophages and colon carcinoma RKO cells treated with CDDO-Im and CDDO, respectively. We suppose that the observed triterpenoid-induced mitogenesis in glioblastoma cells is mediated by compensatory mechanisms in response to compound 12-triggered mitochondrial stress and that it plays a cytoprotective role—high mitochondrial mass is known to be highly correlated with chemotherapy-driven redundant production of reactive oxygen species (ROS) in tumor cells and to underlie their chemoresistance.
U87 cells were seeded at a density of 2.8 × 10^5 cells/well in 6-well plates and incubated overnight, followed by their treatment with 12 at 2 and 4 µM for 24 h. […] Thereafter, the cells were washed twice with PBS and analyzed by flow cytometry. In total, 10,000 events were recorded for each sample.

HuTu-80 cells = assay: MTT cytotoxicity assay, HuTu-80; assay type: cell-based; details: Homo sapiens, HuTu80, 24 h, read-out: IC50, Duodenum, HuTu-80
Procedure: In the first step of the study, we analyzed the cytotoxicity of novel soloxolone derivatives 1–12 in a panel of tumor cells, including human cervical carcinoma HeLa, human duodenal carcinoma HuTu-80 and murine melanoma B16 cells, as well as human non-transformed hFF3 foreskin fibroblasts. The cells were treated with derivatives for 24 h and cell viability was evaluated by 3-(4,5-dimethylthiazol-2-yl)-2,5-diphenyltetrazolium bromide (MTT) assay. SM was used as the reference compound.
as §2

brain tumor cells = assay: MTT cytotoxicity, values summarised over brain tumor cells; assay type: cell-based; details: range over U87, U118, KELLY, Neuro2a; read-out: IC50 against brain malignant cells
Procedure: as §1, §2

## CC1(C)C(=O)C(C#N)=C[C@]2(C)C3=CC(=O)[C@@H]4[C@@H]5C[C@@](C)(C(=O)NCCc6c[nH]c7ccccc67)CC[C@]5(C)CC[C@@]4(C)[C@]3(C)CC[C@@H]12 [compound 12]
Neuro2a cells
  IC50: 1.6 ± 0.1 µM
U118 cells; 12 at 2 µM
  MDC-positive cells, U118: 8.55%
U118 cells; 12 at 4 µM
  MDC-positive cells, U118: 8.02%
KELLY cells
  IC50: 1.8 ± 0.1 µM
U87 cells; U87, 12 at 2 µM
  induction of mitochondrial biogenesis: statistically insignificant
U87 cells; U87, 12 at 4 µM
  increase of mitochondrial mass compared to the control: 1.6 fold
HuTu-80 cells
  IC50: 1.5 ± 0.1 µM
Brain tumor cells
  IC50: 1.6 to 1.9 µM
